Assay results from patent publication US9453062B2, “Glucose dependent insulinotropic polypeptide analogs, pharmaceutical compositions and use thereof” (Beijing Hanmi Pharmaceutical Co., Ltd., priority 2011, dated 2016).
Read-outs that look alike come from different tables or passages of the source. Where a SMILES comes first, the peptide text is derived from it. Where no end group is shown, it is not given here. [ ]: non-standard residue; d: D form. The star is where a group is joined. Biotin = O=C1N[C@H]2[C@H](CS[C@H]2CCCCC(=O)*)N1; Palmitoyl = CCCCCCCCCCCCCCCC(=O)*; Nle = CCCC[C@H](N)C(=O)O; Aib = CC(C)(N)C(=O)O

Key:
hGLP-1R = target: T1, hGLP-1R (Homo sapiens, UniProt P43220); test: hGLP-1R-mediated cAMP induction assay in CHO cell line; type: cell-based; settings: for GLP-1R Relative Potency / GLP-1 Receptor Relative Potency: against native GLP-1;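 on all read-outs here: CHO cells expressing human GLP-1R, treated 30 min at 37 °C, intracellular cAMP measured by competitive fluorescent immunoassay and converted via a cAMP standard curve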
T1 construct: expressed in transfected cells; host or cells: CHO
T1 sequence (P43220 24-463): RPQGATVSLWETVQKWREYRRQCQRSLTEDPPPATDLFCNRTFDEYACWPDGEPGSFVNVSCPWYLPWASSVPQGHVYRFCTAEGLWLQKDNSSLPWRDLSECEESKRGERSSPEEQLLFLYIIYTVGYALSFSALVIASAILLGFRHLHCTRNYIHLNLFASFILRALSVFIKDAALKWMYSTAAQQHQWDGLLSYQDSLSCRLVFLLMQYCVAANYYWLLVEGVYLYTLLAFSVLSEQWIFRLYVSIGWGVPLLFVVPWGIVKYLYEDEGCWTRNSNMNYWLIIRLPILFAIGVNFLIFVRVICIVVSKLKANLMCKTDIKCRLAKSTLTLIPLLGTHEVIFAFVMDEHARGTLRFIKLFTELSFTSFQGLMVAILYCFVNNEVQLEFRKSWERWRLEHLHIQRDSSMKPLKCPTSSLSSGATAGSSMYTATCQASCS

hGIPR = target: T2, hGIPR (Homo sapiens, UniProt P48546); test: hGIPR-mediated cAMP induction assay in CHO cell line; type: cell-based; settings: for GIPR Relative Potency / GIP Receptor Relative Potency: against native GIP
T2 construct: expressed in transfected cells; host or cells: CHO
T2 sequence (P48546 22-466): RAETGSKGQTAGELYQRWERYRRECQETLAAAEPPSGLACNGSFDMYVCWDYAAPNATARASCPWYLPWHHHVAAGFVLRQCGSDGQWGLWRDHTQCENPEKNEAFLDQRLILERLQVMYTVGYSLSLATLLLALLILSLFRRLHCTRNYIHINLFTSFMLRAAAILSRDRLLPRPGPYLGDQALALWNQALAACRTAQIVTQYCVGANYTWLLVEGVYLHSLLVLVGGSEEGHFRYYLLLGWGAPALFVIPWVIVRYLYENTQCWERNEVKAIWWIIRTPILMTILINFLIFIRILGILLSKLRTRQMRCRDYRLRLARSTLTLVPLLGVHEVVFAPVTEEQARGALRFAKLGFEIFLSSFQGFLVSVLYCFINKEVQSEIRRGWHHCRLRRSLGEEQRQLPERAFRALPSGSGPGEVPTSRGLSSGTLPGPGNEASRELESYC

[1] = Table 1, CHO/hGLP-1R cells, read-out: GLP-1R EC50
[2] = Table 1, CHO/hGIPR cells, read-out: GIPR EC50

| Compound | EC50 (hGLP-1R; [1]) [nM] | GLP-1R Relative Potency (hGLP-1R; Table 1) [%] | GLP-1 Receptor Relative Potency (hGLP-1R; Table 3) | EC50 (hGIPR; [2]) [nM] | GIPR Relative Potency (hGIPR; Table 1) [%] | GIP Receptor Relative Potency (hGIPR; Table 3) | EC50 (hGLP-1R; Table 3, CHO hGLP1R cells) [nM] | EC50 (hGIPR; Table 3, CHO hGIPR cells) [nM] | GLP-1R activation (GLP-1 activity) against native GLP-1 (hGLP-1R) | GIPR activation (GIP activity) against native GIP (hGIPR; CHO/hGIPR cell assay) [%] |
| --- | --- | --- | --- | --- | --- | --- | --- | --- | --- | --- |
| CC[C@H](C)[C@H](NC(=O)[C@H](Cc1ccccc1)NC(=O)[C@H](CCC(=O)O)NC(=O)[C@H](CCCNC(=N)N)NC(=O)[C@@H](NC(=O)[C@H](C)NC(=O)[C@H](CCC(=O)O)NC(=O)[C@H](CCCCN)NC(=O)[C@H](CCC(=O)O)NC(=O)[C@H](CCSC)NC(=O)[C@H](Cc1ccc(O)cc1)NC(=O)[C@@H](NC(=O)[C@H](CO)NC(=O)[C@H](Cc1ccc(O)cc1)NC(=O)[C@H](CC(=O)O)NC(=O)[C@H](CO)NC(=O)[C@@H](NC(=O)[C@H](Cc1ccccc1)NC(=O)[C@@H](NC(=O)CNC(=O)[C@H](CCC(=O)O)NC(=O)C(C)(C)NC(=O)[C@@H](N)Cc1ccc(O)cc1)[C@@H](C)O)[C@@H](C)O)[C@@H](C)CC)C(C)C)C(=O)N[C@@H](C)C(=O)N[C@@H](Cc1c[nH]c2ccccc12)C(=O)N[C@@H](CC(C)C)C(=O)N[C@H](C(=O)N[C@@H](CCCCN)C(=O)NCC(N)=O)C(C)C [Compounds 023] (H-Y[Aib]EGTFTSDYSIYMEKEAVREFIAWLVKG-NH2) | 1.28 | 75 | 75 | 0.088 | 106.8 | 106.8 | – | – | – | – |
| CC[C@H](C)[C@H](NC(=O)[C@H](CO)NC(=O)[C@H](Cc1ccc(O)cc1)NC(=O)[C@H](CC(=O)O)NC(=O)[C@H](CO)NC(=O)[C@@H](NC(=O)[C@H](Cc1ccccc1)NC(=O)[C@@H](NC(=O)CNC(=O)[C@H](CCC(=O)O)NC(=O)C(C)(C)NC(=O)[C@@H](N)Cc1ccc(O)cc1)[C@@H](C)O)[C@@H](C)O)C(=O)N[C@@H](Cc1ccc(O)cc1)C(=O)N[C@@H](CCSC)C(=O)N[C@@H](CCC(=O)O)C(=O)N[C@@H](CCCCN)C(=O)N[C@@H](CCC(=O)O)C(=O)N[C@@H](C)C(=O)N[C@H](C(=O)N[C@@H](CCCNC(=N)N)C(=O)N[C@@H](CC(C)C)C(=O)N[C@@H](Cc1ccccc1)C(=O)N[C@H](C(=O)N[C@@H](CCC(=O)O)C(=O)N[C@@H](Cc1c[nH]c2ccccc12)C(=O)N[C@@H](CC(C)C)C(=O)N[C@@H](CCCCN)C(=O)N[C@@H](CC(N)=O)C(=O)NCC(N)=O)[C@@H](C)CC)C(C)C [Compounds 024] (H-Y[Aib]EGTFTSDYSIYMEKEAVRLFIEWLKNG-NH2; N-terminus assumed) | 0.309 | 354 | 354 | 0.1 | 500 | 500 | – | – | – | – |
| CC[C@H](C)[C@H](NC(=O)[C@H](Cc1ccccc1)NC(=O)[C@H](CCC(=O)O)NC(=O)[C@H](CCCCN)NC(=O)[C@H](C)NC(=O)[C@H](C)NC(=O)[C@H](CCC(N)=O)NC(=O)[C@H](CCCCN)NC(=O)[C@H](CCC(=O)O)NC(=O)[C@H](CCSC)NC(=O)[C@H](Cc1ccc(O)cc1)NC(=O)[C@@H](NC(=O)[C@H](CO)NC(=O)[C@H](Cc1ccc(O)cc1)NC(=O)[C@H](CC(=O)O)NC(=O)[C@H](CO)NC(=O)[C@@H](NC(=O)[C@H](Cc1ccccc1)NC(=O)[C@@H](NC(=O)CNC(=O)[C@H](CCC(=O)O)NC(=O)C(C)(C)NC(=O)[C@@H](N)Cc1ccc(O)cc1)[C@@H](C)O)[C@@H](C)O)[C@@H](C)CC)C(=O)N[C@@H](C)C(=O)N[C@@H](Cc1c[nH]c2ccccc12)C(=O)N[C@@H](CC(C)C)C(=O)N[C@H](C(=O)N[C@@H](CCCCN)C(=O)NCC(N)=O)C(C)C [Compounds 025] (H-Y[Aib]EGTFTSDYSIYMEKQAAKEFIAWLVKG-NH2; N-terminus assumed) | 0.837 | 131 | 131 | 1.5 | 33.3 | 33.3 | – | – | – | – |
| CC[C@H](C)[C@H](NC(=O)[C@H](Cc1ccccc1)NC(=O)[C@H](CC(C)C)NC(=O)[C@H](CCCCN)NC(=O)[C@H](C)NC(=O)[C@H](C)NC(=O)[C@H](CCC(N)=O)NC(=O)[C@H](CCCCN)NC(=O)[C@H](CCC(=O)O)NC(=O)[C@H](CCSC)NC(=O)[C@H](Cc1ccc(O)cc1)NC(=O)[C@@H](NC(=O)[C@H](CO)NC(=O)[C@H](Cc1ccc(O)cc1)NC(=O)[C@H](CC(=O)O)NC(=O)[C@H](CO)NC(=O)[C@@H](NC(=O)[C@H](Cc1ccccc1)NC(=O)[C@@H](NC(=O)CNC(=O)[C@H](CCC(=O)O)NC(=O)C(C)(C)NC(=O)[C@@H](N)Cc1ccc(O)cc1)[C@@H](C)O)[C@@H](C)O)[C@@H](C)CC)C(=O)N[C@@H](CCC(=O)O)C(=O)N[C@@H](Cc1c[nH]c2ccccc12)C(=O)N[C@@H](CC(C)C)C(=O)N[C@@H](CCCCN)C(=O)N[C@@H](CC(N)=O)C(=O)NCC(N)=O [Compounds 026] (H-Y[Aib]EGTFTSDYSIYMEKQAAKLFIEWLKNG-NH2) | 0.38 | 288 | 288 | 4.2 | 11.9 | 11.9 | – | – | – | – |
| H-Y[Aib]EGTFTSDYSIYMEKEAVREFIAWLVKGGPSSGAPPPSKKKKKK(Biotin)-NH2 [Compound 080] | – | – | 98.5 | – | – | 67 | 1.11 | 0.1 | – | – |
| Tyr-Aib-Glu-Gly-Thr-Phe-Thr-Ser-Asp-Tyr-Ser-Ile-Tyr-Nle-Glu-Lys-Ile-His-Gln-Gln-Asp-Phe-Val-Asn-Trp-Leu-Val-Arg-Gln(NH2) (Y[Aib]EGTFTSDYSIY[Nle]EKIHQQDFVNWLVRQ-NH2) [Analog 021] | – | – | – | – | – | – | – | – | around 5% | 21 |
| Y[Aib]EGTFTSDYSIYMEKEAVREFIAWLVKGGPSSGAPPPSKKKKKK(Palmitoyl)-NH2 [Compound 078] | – | – | 754 | – | – | 352.6 | 0.145 | 0.019 | – | – |
| Y[Aib]EGTFTSDYSIYMEKEAVREFIAWLVKGGPSSGAPPPSKKKKKK-NH2 [Compound 071] | – | – | 25.1 | – | – | 22.1 | 3.8 | 0.77 | – | – |
